The values that follow come from patent publication US20190211099A1, “METHODS AND COMPOSITIONS FOR TREATING CANCER WITH SIGLEC-9 ACTIVITY MODULATORS” (KING'S COLLEGE LONDON, priority 2016, published 2019).

One assay relates to monocytes. In words: Calcium flux in monocytes (Fluo-4 intracellular calcium reporter). The conditions noted are these: monocytes or macrophages, 100 μg/10^6 cells. It is filed as cell-based, human. The method, then: In addition, in a murine tumor model Siglec-E (the mouse Siglec with the most similarity to human Siglec-9), was associated with a decrease in alternatively activated macrophages (Laubli et al. (2014) PROC. NATL. ACAD. SCI. USA). As a result, the triggering of a calcium flux when MUC1-ST engaged Siglec-9 was investigated. Briefly, monocytes pre-labeled with an intracellular calcium reporter (Fluo-4; Life Technologies) were treated with MUC1-ST, MUC1-T (100 μg/10^6 cells) or a T47D monolayer, for 4 hours at 4° C. The cells were brought up to 37° C. and calcium flux was measured at 530 nm using a plate reader at the indicated time points. Where not indicated, the time point was 60 seconds. When monocytes or macrophages were treated with MUC1-ST, a Siglec-9 dependent increase in calcium influx was observed (FIGS. 13E-F). A calcium flux was also observed when monocytes and T47D cells came into contact. This effect could also be inhibited by the anti-Siglec-9 antibody.
(A change in cytosolic calcium serves as a functional read-out for many receptors and channels.)

Another assay concerns the target Siglec-9 (Homo sapiens, UniProt Q9Y336). In words: Binding of biotinylated MUC1-ST to primary monocytes and monocyte-derived macrophages (flow cytometry), with or without blocking antibody. The class given is cell-based. Further details: endogenous in cells; host or cells: THP-1 and U937 cells. The conditions noted are these: primary monocytes, monocyte-derived macrophages and AML lines. The method, then: Both the cell phenotype staining and neutralization studies described in the Examples were performed using the following antibodies (all anti-human): Siglec-9 (Biotechne; 191240), Siglec-9 FITC (Biotechne; 191240), Siglec-3 (Biotechne; 6C5/2), Siglec-7 (Biotechne; AF1138), Siglec-3 FITC (BD; P67.6), Siglec-7 PE (Biolegend; 6-434), Siglec-10 PE (Biolegend; 5G6), Siglec-1 (abcam; 7D2), HLA-DR FITC (Beckman Coulter; IM0463U), CD16 FITC (Biolegend; B73.1), CD14 FITC (BD 555397), CD69 PE (Beckman Coulter; IM1943), CD25 FITC (ABX228FITC), CD86 PE (Beckman Coulter; IM2729U), CD40 FITC (BD 555588), CD83 PE (Beckman Coulter; IM2218), CD163 PE (Biolegend; GHI/61), CXCR1 FITC (BD Pharmongen; 551126), CD45 PC5 (Beckman Coulter; IM2653U), CD206 PE (ebioscience; 19.2), PD-L1 PE (Biolegend; 29E.2A3), CD36 (Santa Cruz; H-300), TGFbetaRII (Bio-Techne; AF-241), IL-6Rα (Tocilizumab; Roche. A generous gift from Dr. Valerie Corrigall). Cells were suspended in PBS+0.5% BSA (2×10^5 cells/100 μL/sample) and incubated with Abs according to the manufacturer's instructions. At least 1×10^4 events were evaluated using either Epics XL, (Beckman Coulter) or FACSCalibur (BD Biosciences) flow cytometers. […]
To investigate the interaction of MUC1-ST with cells of the immune system, immune cell subsets were obtained as follows. […] Purity was assessed at >95% by staining with relevant antibodies. […]

The test system of a further assay is SHP2. In words: Activation of SHP2 after MUC1-ST binding. It is filed as cell-based, human. The method, then: ELISAs for IL-6, IL-12p70, TGF-β1, PAI-1, M-CSF, EGF, SHP2, phospho-SHP2 (Biotechne) were all carried out as per manufacturer's instructions.
A Western blot to assay phosphorylation of SHP, which is recruited by phosphorylated Siglec-9 (Avril et al. (2004) supra) was conducted. Monocytes were incubated with MUC1-ST and lysed as described above, and the resulting lysates were separated by SDS PAGE (10% gel) before being transferred, blocked and probed with anti-SHP1 (Santa Cruz), anti-phospho SHP1 (Abcam) and appropriate secondary antibodies. Phosphorylation of SHP was not observed after MUC1-ST binding to Siglec-9 on primary monocytes (FIG. 13C) although again, phosphorylation of SHP1 was observed when Siglec-9 was activated via antibody cross-linking. No activation of SHP2 was observed.

Siglec-9, sequence (Q9Y336 18-463): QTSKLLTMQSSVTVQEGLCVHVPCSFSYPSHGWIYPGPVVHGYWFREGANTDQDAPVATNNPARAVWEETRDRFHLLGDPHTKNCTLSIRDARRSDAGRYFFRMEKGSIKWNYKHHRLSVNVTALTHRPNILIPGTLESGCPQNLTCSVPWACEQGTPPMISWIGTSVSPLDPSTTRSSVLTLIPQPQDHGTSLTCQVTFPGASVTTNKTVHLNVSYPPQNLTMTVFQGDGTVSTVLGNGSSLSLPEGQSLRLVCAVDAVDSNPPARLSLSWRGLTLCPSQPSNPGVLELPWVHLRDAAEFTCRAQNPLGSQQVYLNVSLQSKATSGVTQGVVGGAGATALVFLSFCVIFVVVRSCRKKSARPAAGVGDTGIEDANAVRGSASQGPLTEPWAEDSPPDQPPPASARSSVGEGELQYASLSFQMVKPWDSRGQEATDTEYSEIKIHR

Regarding “NeuAcα2,3Galβ1-3GalNAc linked via a Ser/Thr of MUC1 [MUC1-ST]”, in the assay on monocytes, the calcium influx result is “increase”. For the same substance, in the assay with Siglec-9, the binding to cells result is given as “found to bind”. In addition, the “activation of SHP2” value with SHP2 is reported as “No activation”.
